For test [1], the system named is explants of adipose tissues. Briefly: Slimming effect: glycerol released in culture medium of adipose tissue explants. Type of test: cell-based, human. Here is the method: The activity of the compounds of the invention on the adipocytes has been assessed. To do so, tests have been carried out on explants of adipose tissues that are kept alive according to the following experimental protocol. The products to be tested are introduced in the culture medium. After 9 days of treatment, the activity is assessed through an assay of the glycerol released in the culture medium. In order to be able to compare the potential activity of the molecules, caffeine (Sigma ref C-0750 batch 127F0396), which is known for its activity on the adipocytes (Studlar M. […] The explants are prepared from a tummy tuck ([…]-AB-40) carried out on a donor. 54 explants of tissues have been prepared and kept alive in a medium which is supplemented with penicillin/streptomycin antibiotics (Gibco ref 15140 batch 918578) at 37° C. and with 5% of CO2. The treatment has been carried out, on 3 explants, by incorporating 100 μl of the product (which is in turn at a 2% concentration in the adequate solvent, DMSO) in 2 ml of the culture medium on days J0, J2, J3, J5 and J7. Caffeine has been diluted to the desired concentration in the culture medium on these same days. The control explants have undergone no treatment. On J0, the 3 explants have been collected and frozen at -80° C. On J9, the remaining explants have been collected and preserved under the same conditions. The extraction of lipids from the culture medium has been carried out according to a tested procedure. The assay of the glycerol of the culture medium has been carried out using a glycerol assay kit (Megazyme, K-GROL) in the form of 96-well microplates and reading has been made at 340 nm with a Tecam Infinite M200 microplate reader associated to the Magellan software.

Test [2] deals with normal human dermal fibroblasts. Briefly: Production of progerin in monolayer cultures of normal human dermal fibroblasts (ELISA). The format is cell-based. The settings on record: for Progerin % DMSO / Progerin Average / Progerin, individual values / Progerin Difference (%): 96 hours; for Progerin Difference (%): vs DMSO; for neo synthesis of progerin: under the retained experimental conditions. From the text:
In order to study the influence of the compounds of the invention on the concentration of progerin in the cells, the assay method described by C. Verdy, J.-E. Branka and N. Mekideche in <<Quantitative assessment of lactate and progerine production in normal human cutaneous cells during normal ageing: effect of an alaria esculenta extract>>, Int. J. Cosmetic Science, 2011, 1-5, has been used.
(§1) The test system consists of monolayers of adult normal human dermal fibroblasts obtained by cultivating cells collected from a tummy tuck carried out on a person.
Insulin at 10 nM has been used as a reference product in this study. […]
(§2) The compound to be tested is solubilized in 1 mg/ml in DMSO, then diluted in the cells incubation medium, with a constant concentration of 0.1% (v/v) in DMSO.
Upon completion of the incubation period, on the one hand, the progerin has been quantified in the cellular lysates (obtained by ultrasonic action) through a sensitive and specific ELISA assay, and on the other hand, the proteins that are contained in the cellular lysates have been quantified by a spectrophotometric method (Bradford method—Bradford M. (1976) Anal. Biochem., 72, 248-254).
(§3) The statistical significance of the differences that have been observed between the <<Control>> and the <<reference product>> conditions, has been assessed through a Student test. The statistical significance of the differences that have been observed between the <<Check>> and the <<test products>> conditions, has been assessed through a one-way analysis of variance (One Way ANOVA) followed by a Holm-Sidak test (*:p<0.05).

Test [3] has the same test system. Briefly: Production of type I pro-collagen in monolayer cultures of normal human dermal fibroblasts (E.I.A.). The format is cell-based. The settings on record: 48 hours; for Procollagen Difference (%): vs DMSO. Here is the method: as §1
The used reference activator is the Transforming Growth Factor β (TGF-β) at 1 ng/ml. […]
as §2
Upon completion of the incubation period, the type I pro-collagen contained in the fibroblasts incubation media has been quantified using a sensitive and specific E.I.A. kit.
Upon completion of the incubation period, the proteins contained in the cellular lysates have been quantified by a spectrophotometric method (Bradford method—Bradford M. (1976) Anal. Biochem., 72, 248-254).
as §3
The results are given in the form of μg of type I pro-collagen per mg of protein (average+/− the standard deviation, S.D.) and are reported in the following Table 5.

Test [4] relates to normal human melanocytes. Briefly: Melanin production of normal human melanocytes (conditioned fibroblast media). Type of test: cell-based. To be noted: 250 μM, melanocytes 72 hours. From the text:
These experiments allowed to show the capability of the compounds of the invention to modulate the melanin production of normal human melanocytes cultivated in D.K.K. fibroblast monolayers.
Monolayers of normal human dermal fibroblasts have been obtained by cultivating cells collected from a tummy tuck carried out on a person. For carrying out the tests, these cells have been cultivated until obtaining confluent monolayers. Monolayers of normal human melanocytes have been obtained by cultivating cells collected from a tummy tuck carried out on a person. For carrying out the tests, these cells have been cultivated until obtaining non-confluent monolayers. […]
Afterwards, the melanocytes have been incubated for 72 hours at 37° C. in a humid atmosphere with 5% of CO2, in the absence (culture medium alone) or in the presence of kojic acid at 250 μM or of conditioned fibroblast media (see above) diluted to 1/10th in the culture medium of the melanocytes.
The active ingredient has been solubilized in DMSO (Dimethyl Sulfoxide). Afterwards, the dilutions have been carried out in the cells incubation medium with a constant concentration of 0.01% (v/v) of DMSO.
Upon completion of the incubation period, the intracellular melanin content has been quantified in the melanocytic lysates by a spectrophotometric measurement at 405 nm.
Upon completion of the incubation period, the proteins contained in the cellular lysates have been quantified by a spectrophotometric method (Bradford method).
The results are given in the form of μg of intracellular melanin per mg of total proteins of the cellular layer (averages+/− the standard deviation, S.D.).
The statistical significance of the differences observed between the <<Control>> and the <<test product>> conditions, has been assessed through a one-way analysis of variance (One Way ANOVA) followed by a Holm-Sidak test (*:p<0.05).

Several values for one entry are separate records, joined by “and”; a condition that tells them apart may be missing. Equal values may be shown once. Marks after values point to notes of the source that are not given here.

With `Cn1c(=O)c2c(ncn2C)n(C)c1=O` [Caffeine, caffeine, reference compound], in test [1] (after 9 days of treatment), the “Glycerol % in comparison with caffeine” value is listed as 100%. For the same compound, in test [1] (glycerol released in culture medium after 9 days, 100 μl of 2% product in DMSO in 2 ml medium on J0, J2, J3, J5, J7, 3 explants), the “Glycerol Average” value came to 0.096 mg/mL.
On to `COc1cc(/C=C/C(=O)Oc2ccc(CCO)cc2)cc(OC)c1OC(C)=O` [Compound 2], for which, in test [2] (10 ng/ml), the “Progerin % DMSO” value worked out at 25.8%; the “Progerin Average” value is on record as 286.9* ng/mg of protein; the “Progerin, individual values” is 233.7 ng/mg of protein and 353.5 ng/mg of protein and 273.6 ng/mg of protein; the “Progerin Difference (%)” value is given as −74.2%. In test [2] (100 ng/ml), the “Progerin % DMSO” value amounted to 23.1%; the “Progerin Average” value is listed as 256.4* ng/mg of protein; the “Progerin, individual values” is 170.6 ng/mg of protein and 196.3 ng/mg of protein and 402.4 ng/mg of protein; the “Progerin Difference (%)” value is on record as −76.9%. In test [2] (500 ng/ml), the “Progerin % DMSO” value stood at 26.4%; the “Progerin Average” value was 293* ng/mg of protein; the “Progerin, individual values” was 300.1 ng/mg of protein and 328.4 ng/mg of protein and 250.5 ng/mg of protein; the “Progerin Difference (%)” value is −73.6%. Besides, the “neo synthesis of progerin” value in test [2] is “significantly decrease”.
On to `COc1cc(/C=C/C(=O)Oc2coc(CO)cc2=O)cc(OC)c1OC(C)=O` [Compound 10], for which, in test [2] (50 ng/ml), the “Progerin % DMSO” value is 23.8%; the “Progerin Average” value was 264.1* ng/mg of protein; the “Progerin, individual values” is 274.9 ng/mg of protein and 225.1 ng/mg of protein and 292.3 ng/mg of protein; the “Progerin Difference (%)” value is recorded as −76.2%. In test [2] (500 ng/ml), the “Progerin % DMSO” value amounted to 26.1%; the “Progerin Average” value was 289.6* ng/mg of protein; the “Progerin, individual values” was 301.7 ng/mg of protein and 296.1 ng/mg of protein and 271.0 ng/mg of protein; the “Progerin Difference (%)” value was −73.9%. Further, in test [2] (5000 ng/ml), the “Progerin % DMSO” value is 26.2%; the “Progerin Average” value was 291.4* ng/mg of protein; the “Progerin, individual values” is 261.2 ng/mg of protein and 245.9 ng/mg of protein and 366.9 ng/mg of protein; the “Progerin Difference (%)” value is on record as −73.8%. Further, the “neo synthesis of progerin” value in test [2] is on record as “significantly decrease”. For the same compound, in test [3] (10 ng/ml), the “Procollagen % DMSO” value came out at 104.6%; the “Procollagen Average” value was 54.9 pg/mg of protein; the “Procollagen, individual values” was 45.6 pg/mg of protein and 48.7 pg/mg of protein and 70.3 pg/mg of protein; the “Procollagen Difference (%)” value is 4.6%. Moreover, in test [3] (100 ng/ml), the “Procollagen % DMSO” value was 150.2%; the “Procollagen Average” value was 78.8* pg/mg of protein; the “Procollagen, individual values” is 74.0 pg/mg of protein and 75.9 pg/mg of protein and 86.4 pg/mg of protein; the “Procollagen Difference (%)” value was 50.2%. Besides, in test [3] (500 ng/ml), the “Procollagen % DMSO” value is listed as 175.3%; the “Procollagen Average” value is recorded as 91.9* pg/mg of protein; the “Procollagen, individual values” is 90.6 pg/mg of protein and 95.4 pg/mg of protein and 89.8 pg/mg of protein; the “Procollagen Difference (%)” value is recorded as 75.3%.
For the compound `O=c1cc(CO)occ1O` [Kojic acid, kojic acid, reference compound], in test [4], the Melanin/Proteins % control is reported as 86.6* %; the “Melanin/Proteins Average” value stood at 14.0 µg/mg; the “Melanin/Proteins, individual values” is 14.3 µg/mg and 13.4 µg/mg and 14.1 µg/mg.

Source of the values: patent publication US9463338B2, “Derivatives of the sinapinic acid” (PHARMASYNTHESE, priority 2013, dated 2016).
